Literature values in patent US20200253960A1, “ANTIBIOTIC FORMULATIONS FOR TREATING OF CAVITY INFECTIONS” (ARADIGM CORPORATION, priority 2019, published 2020).

Test system: Pseudomonas aeruginosa
Settings: cystic fibrosis

In the case of `CC[C@H]1OC(=O)[C@H](C)[C@@H](O[C@H]2C[C@@](C)(OC)[C@@H](O)[C@H](C)O2)[C@H](C)[C@@H](O[C@@H]2O[C@H](C)C[C@H](N(C)C)[C@H]2O)[C@](C)(O)C[C@@H](C)CN(C)[C@H](C)[C@@H](O)[C@]1(C)O` [azithromycin], the “interaction with inhaled tobramycin” value is given as “antagonistic against inhaled tobramycin”.
